According to patent US20120270945A1, “METHOD FOR MODULATING CYTOKINE ACTIVITY” (SUCAMPO AG, priority 2011, published 2012):

Assays:
IL-12 = IL-12 mRNA expression in intestinal tissue of DSS-induced ulcerative colitis rats (real-time PCR); format: in vivo, rat
Experimental: (§1) Male LEW/SsN rats were given free access to 3% dextran sulfate sodium (DSS) in drinking water to induce ulcerative colitis. (−)-7-{(2R,4aR,5R,/aR)-2-[(3S)-1,1-difluoro-3-methylpentyl]-2-hydroxy-6-oxooctahydrocyclopenta[b]pyran-5-yl}heptanoic acid (Compound A) was orally administered to the animals twice a day for 10 days. The same amount of the vehicle was administered to control animals. At the 10 days after start of 3% DSS drinking, animals were sacrificed and intestinal tissues were excised. The mRNA expressions of IL-12, IL-1beta, IL-6, and TNF-alpha in the intestinal tissues were measured by real-time polymerase chain reaction technique.
(§2) Each value is relative to the reference gene (GAPDH) level. Data are represented as mean (Arbitrary unit) from 3 to 4 animals.

[1] = Incidence of esophagitis in patients who take NSAIDs (naproxen); format: in vivo, human; conditions: patients on 500 mg naproxen twice a day
Experimental: Patients who take NSAIDs were randomized to one of four treatment groups. All patients received 500 mg of naproxen twice a day. One group received placebo while the other three groups received 18, 36 or 54 mcg of Compound A, respectively, for 12 weeks. The incidence of esophagitis was 10.0%, 6.5% or 6.5% for the groups received 18, 36 or 54 mcg of Compound A, respectively, while it was 20.0% for the group received placebo.

IL-6 = IL-6 mRNA expression in intestinal tissue of DSS-induced ulcerative colitis rats (real-time PCR); format: in vivo, rat
Experimental: as §1, §2

TNF-alpha = TNF-alpha mRNA expression in intestinal tissue of DSS-induced ulcerative colitis rats (real-time PCR); format: in vivo, rat
Experimental: as §1, §2

IL-1beta = IL-1beta mRNA expression in intestinal tissue of DSS-induced ulcerative colitis rats (real-time PCR); format: in vivo, rat
Experimental: as §1, §2

SOCS-1 = SOCS-1 expression in colon of DSS-induced colitis model mice (real-time PCR); format: in vivo, mouse; conditions: C57/B6J mice, 2% DSS for 7 days, 10 μM solution orally once daily for 7 days, GAPDH as reference
Experimental: The experimental model used C57/B6J mice (7-8 weeks old). Colitis was induced by administration of 2% dextran sulfate sodium (DSS) in drinking water for 7 days. Ten (10) μM solution of Compound B ((−)-7-[(2R,4aR,5R,7aR)-2-(1,1-difluoropentyl)-2-hydroxy-6-oxooctahydrocyclopenta[b]pyran-5-yl]heptanoic acid) was administered orally once daily for 7 days from the day of starting DSS treatment. One day after last administration, animals were sacrificed and colons were excised. After extraction of mRNA from colon tissues, real-time PCR analysis of SOCS-1 was conducted using house-keeping gene GAPDH as a reference.

[2] = DSS-induced ulcerative colitis model rats, versus vehicle control
[3] = male LEW/SsN rats, 3% DSS drinking water, oral twice a day for 10 days, intestinal tissue, mean from 3 to 4 animals

Row | Compound | effect on expression of IL-12 increased by DSS (in words) (IL-12; [2]) | expression of IL-12 (mRNA, relative to GAPDH) (IL-12; [3]) [Arbitrary unit] | incidence of esophagitis ([1]; 18 mcg for 12 weeks (placebo 20.0%)) [%] | incidence of esophagitis ([1]; 36 mcg for 12 weeks (placebo 20.0%)) [%] | incidence of esophagitis ([1]; 54 mcg for 12 weeks (placebo 20.0%)) [%] | effect on expression of IL-6 increased by DSS (in words) (IL-6; [2]) | expression of IL-6 (mRNA, relative to GAPDH) (IL-6; [3]) [Arbitrary unit] | effect on expression of TNF-alpha increased by DSS (in words) (TNF-alpha; [2]) | expression of TNF-alpha (mRNA, relative to GAPDH) (TNF-alpha; [3]) [Arbitrary unit] | effect on expression of IL-1beta increased by DSS (in words) (IL-1beta; [2]) | expression of IL-1beta (mRNA, relative to GAPDH) (IL-1beta; [3]) [Arbitrary unit] | effect on overexpression of SOCS-1 gene (in words) (SOCS-1)
1 | CC[C@H](C)CC(F)(F)[C@@]1(O)CC[C@H]2[C@@H](CC(=O)[C@@H]2CCCCCCC(=O)O)O1 [Compound A, (−)-7-{(2R,4aR,5R,/aR)-2-[(3S)-1,1-difluoro-3-methylpentyl]-2-hydroxy-6-oxooctahydrocyclopenta[b]pyran-5-yl}heptanoic acid] | reduced | 0.99 | 10.0 | 6.5 | 6.5 | reduced | 49.25 | reduced | 4.68 | reduced | 54.83 | –
2 | CCCCC(F)(F)[C@@]1(O)CC[C@H]2[C@@H](CC(=O)[C@@H]2CCCCCCC(=O)O)O1 [Compound B, (−)-7-[(2R,4aR,5R,7aR)-2-(1,1-difluoropentyl)-2-hydroxy-6-oxooctahydrocyclopenta[b]pyran-5-yl]heptanoic acid] | – | – | – | – | – | – | – | – | – | – | – | reduced
